Test system: total bacteria (bacterial purine)
Experiment: In vitro microbe measurements: bacterial purine (total bacteria)
Assay type: cell-based, cattle
Details: alfalfa; monensin 6 ppm
Excerpt: Proprionate is largely responsible for animal growth. […] There appears to be no effect on alfalfa protozoa and alfalfa bacterial purine by the beta acids. Again, reduction in protozoa and bacteria levels means more food and energy for animal growth.

CC[C@@]1([C@@H]2O[C@@H]([C@H]3O[C@@](O)(CO)[C@H](C)C[C@@H]3C)C[C@@H]2C)CC[C@H]([C@]2(C)CC[C@]3(C[C@H](O)[C@@H](C)[C@@H]([C@@H](C)[C@@H](OC)[C@H](C)C(=O)O)O3)O2)O1 [monensin]
elimination of protozoa and bacterial purines: most effectively eliminate

From patent publication US8197863B2, “Hop acids as a replacement for antibiotics in animal feed” (John I. Haas, Inc., priority 2002, dated 2012)
